≈ marks a conversion by molar mass, not a printed value.
Key:
Format in all cases: functional
Candida tropicalis = test: Antifungal activity against Candida tropicalis 8915 assessed as inhibition of fungal growth incubated for 48 hrs by CLSI based broth microdilution assay
Candida parapsilosis = test: Antifungal activity against Candida parapsilosis 22019 assessed as inhibition of fungal growth incubated for 48 hrs by CLSI based broth microdilution assay; settings: Lodderomyces parapsilosis
Cryptococcus neoformans = test: Antifungal activity against Cryptococcus neoformans 32609 assessed as inhibition of fungal growth incubated for 72 hrs by CLSI based broth microdilution assay
Nakaseomyces glabratus = test: Antifungal activity against Candida glabrata 537 assessed as inhibition of fungal growth incubated for 48 hrs by CLSI based broth microdilution assay
Candida albicans [1] = test: Antifungal activity against Candida albicans 10231 assessed as inhibition of fungal growth incubated for 48 hrs by CLSI based broth microdilution assay
Candida albicans [2] = test: Antifungal activity against Candida albicans SC5314 assessed as inhibition of fungal growth incubated for 48 hrs by CLSI based broth microdilution assay
Pichia kudriavzevii = test: Antifungal activity against Candida krusei 4996 assessed as inhibition of fungal growth incubated for 48 hrs by CLSI based broth microdilution assay
[Candida] auris [3] = Antifungal activity against fluconazole-resistant Candida auris 919 assessed as inhibition of fungal growth incubated for 48 hrs by CLSI based broth microdilution assay; settings: Candidozyma auris
Candida albicans [4] = test: Antifungal activity against fluconazole-resistant Candida albicans 901 assessed as inhibition of fungal growth incubated for 48 hrs by CLSI based broth microdilution assay
Candida albicans [5] = test: Antifungal activity against fluconazole-resistant Candida albicans 904 assessed as inhibition of fungal growth incubated for 48 hrs by CLSI based broth microdilution assay
[Candida] auris [6] = Antifungal activity against fluconazole-resistant Candida auris 918 assessed as inhibition of fungal growth incubated for 48 hrs by CLSI based broth microdilution assay; settings: Candidozyma auris
[Candida] auris [7] = Antifungal activity against fluconazole-resistant Candida auris 891 assessed as inhibition of fungal growth incubated for 48 hrs by CLSI based broth microdilution assay; settings: Candidozyma auris

Row | Structure (SMILES) | MIC (Candida tropicalis) [µg/mL] | MIC (Candida parapsilosis) [µg/mL] | MIC (Cryptococcus neoformans) [µg/mL] | MIC (Nakaseomyces glabratus) [µg/mL] | MIC (Candida albicans [1]) [µg/mL] | MIC (Candida albicans [2]) [µg/mL] | MIC (Pichia kudriavzevii) [µg/mL] | MIC ([Candida] auris [3]) [µg/mL] | MIC (Candida albicans [4]) [µg/mL] | MIC (Candida albicans [5]) [µg/mL] | MIC ([Candida] auris [6]) [µg/mL] | MIC ([Candida] auris [7]) [µg/mL]
1 | C[C@@H](OCc1ccn(Cc2cc(Cl)ccc2Cl)n1)[C@](O)(Cn1cncn1)c1ccc(F)cc1F | 32 (≈ 62.9 µM) | 1 (≈ 1.97 µM) | 0.25 (≈ 0.492 µM) | 0.5 (≈ 0.984 µM) | 0.5 (≈ 0.984 µM) | 0.25 (≈ 0.492 µM) | 4 (≈ 7.87 µM) | – | – | – | – | –
2 | C[C@@H](OCc1ccn(Cc2ccccc2)n1)[C@](O)(Cn1cncn1)c1ccc(F)cc1F | 32 (≈ 72.8 µM) | 0.5 (≈ 1.14 µM) | 0.25 (≈ 0.569 µM) | 0.25 (≈ 0.569 µM) | 0.5 (≈ 1.14 µM) | 0.5 (≈ 1.14 µM) | 4 (≈ 9.1 µM) | – | – | – | – | –
3 | C[C@@H](OCc1ccn(Cc2ccc(I)cc2)n1)[C@](O)(Cn1cncn1)c1ccc(F)cc1F | 0.5 (≈ 0.884 µM) | 0.25 (≈ 0.442 µM) | 0.25 (≈ 0.442 µM) | ≤ 0.125 | ≤ 0.125 | ≤ 0.125 | 2 (≈ 3.54 µM) | 4 (≈ 7.08 µM) | 8 (≈ 14.2 µM) | 16 (≈ 28.3 µM) | 16 (≈ 28.3 µM) | 16 (≈ 28.3 µM)
4 | Cc1cccc(Cn2ccc(CO[C@H](C)[C@](O)(Cn3cncn3)c3ccc(F)cc3F)n2)c1 | > 64 | 0.5 (≈ 1.1 µM) | 0.5 (≈ 1.1 µM) | 4 (≈ 8.82 µM) | 0.25 (≈ 0.551 µM) | ≤ 0.125 | 8 (≈ 17.6 µM) | – | – | – | – | –
5 | C[C@@H](OCc1ccn(Cc2c(Cl)cccc2Cl)n1)[C@](O)(Cn1cncn1)c1ccc(F)cc1F | 32 (≈ 62.9 µM) | 1 (≈ 1.97 µM) | 0.25 (≈ 0.492 µM) | 0.5 (≈ 0.984 µM) | 0.5 (≈ 0.984 µM) | 0.25 (≈ 0.492 µM) | 8 (≈ 15.7 µM) | – | – | – | – | –
6 | C[C@@H](OCc1ccn(Cc2ccc([N+](=O)[O-])cc2)n1)[C@](O)(Cn1cncn1)c1ccc(F)cc1F | 0.5 (≈ 1.03 µM) | 0.25 (≈ 0.516 µM) | 0.5 (≈ 1.03 µM) | ≤ 0.125 | ≤ 0.125 | ≤ 0.125 | 4 (≈ 8.26 µM) | – | – | – | – | –
7 | C[C@@H](OCc1ccn(Cc2ccccc2F)n1)[C@](O)(Cn1cncn1)c1ccc(F)cc1F | ~64 (≈ 140 µM) | 0.5 (≈ 1.09 µM) | 0.25 (≈ 0.547 µM) | 0.25 (≈ 0.547 µM) | 0.25 (≈ 0.547 µM) | ≤ 0.125 | 8 (≈ 17.5 µM) | – | – | – | – | –
8 | C[C@@H](OCc1ccn(Cc2ccccc2Cl)n1)[C@](O)(Cn1cncn1)c1ccc(F)cc1F | 32 (≈ 67.5 µM) | 0.5 (≈ 1.06 µM) | 0.25 (≈ 0.528 µM) | 0.5 (≈ 1.06 µM) | 0.25 (≈ 0.528 µM) | ≤ 0.125 | 8 (≈ 16.9 µM) | – | – | – | – | –
9 | C[C@@H](OCc1ccn(Cc2ccc(F)cc2F)n1)[C@](O)(Cn1cncn1)c1ccc(F)cc1F | 0.25 (≈ 0.526 µM) | 0.5 (≈ 1.05 µM) | 0.5 (≈ 1.05 µM) | 0.25 (≈ 0.526 µM) | 0.25 (≈ 0.526 µM) | ≤ 0.125 | 4 (≈ 8.41 µM) | – | – | – | – | –
10 | C[C@@H](OCc1ccn(Cc2ccc(Cl)cc2F)n1)[C@](O)(Cn1cncn1)c1ccc(F)cc1F | 0.5 (≈ 1.02 µM) | 0.5 (≈ 1.02 µM) | 0.25 (≈ 0.508 µM) | 0.25 (≈ 0.508 µM) | 0.25 (≈ 0.508 µM) | ≤ 0.125 | 2 (≈ 4.07 µM) | 16 (≈ 32.5 µM) | 16 (≈ 32.5 µM) | 8 (≈ 16.3 µM) | 32 (≈ 65.1 µM) | 8 (≈ 16.3 µM)
11 | C[C@@H](OCc1ccn(Cc2ccc(C#N)cc2)n1)[C@](O)(Cn1cncn1)c1ccc(F)cc1F | 0.5 (≈ 1.08 µM) | 0.5 (≈ 1.08 µM) | 1 (≈ 2.15 µM) | 1 (≈ 2.15 µM) | 0.25 (≈ 0.538 µM) | ≤ 0.125 | 8 (≈ 17.2 µM) | – | – | – | – | –
12 | C[C@@H](OCc1ccn(Cc2ccc(C(F)(F)F)cc2)n1)[C@](O)(Cn1cncn1)c1ccc(F)cc1F | 0.5 (≈ 0.985 µM) | 0.5 (≈ 0.985 µM) | 0.5 (≈ 0.985 µM) | 1 (≈ 1.97 µM) | ≤ 0.125 | 0.25 (≈ 0.493 µM) | 4 (≈ 7.88 µM) | – | – | – | – | –
13 | COc1ccc(Cn2ccc(CO[C@H](C)[C@](O)(Cn3cncn3)c3ccc(F)cc3F)n2)cc1 | > 64 | 1 (≈ 2.13 µM) | 0.5 (≈ 1.06 µM) | 0.5 (≈ 1.06 µM) | 0.25 (≈ 0.532 µM) | ≤ 0.125 | 8 (≈ 17 µM) | – | – | – | – | –
14 | C[C@@H](OCc1ccn(Cc2cccc(F)c2F)n1)[C@](O)(Cn1cncn1)c1ccc(F)cc1F | 0.25 (≈ 0.526 µM) | 0.5 (≈ 1.05 µM) | 0.5 (≈ 1.05 µM) | 0.25 (≈ 0.526 µM) | 0.25 (≈ 0.526 µM) | ≤ 0.125 | 8 (≈ 16.8 µM) | – | – | – | – | –
15 | C[C@@H](OCc1ccn(Cc2c(F)cccc2F)n1)[C@](O)(Cn1cncn1)c1ccc(F)cc1F | 0.25 (≈ 0.526 µM) | 0.5 (≈ 1.05 µM) | 0.5 (≈ 1.05 µM) | 0.5 (≈ 1.05 µM) | 0.5 (≈ 1.05 µM) | ≤ 0.125 | 16 (≈ 33.7 µM) | – | – | – | – | –
16 | C[C@@H](OCc1ccn(Cc2c(F)cc(F)cc2F)n1)[C@](O)(Cn1cncn1)c1ccc(F)cc1F | 64 (≈ 130 µM) | 0.5 (≈ 1.01 µM) | 0.5 (≈ 1.01 µM) | 0.5 (≈ 1.01 µM) | 0.5 (≈ 1.01 µM) | 0.25 (≈ 0.507 µM) | 8 (≈ 16.2 µM) | – | – | – | – | –
17 | C[C@@H](OCc1ccn(Cc2cc(F)ccc2F)n1)[C@](O)(Cn1cncn1)c1ccc(F)cc1F | 0.25 (≈ 0.526 µM) | 0.5 (≈ 1.05 µM) | 0.5 (≈ 1.05 µM) | 0.25 (≈ 0.526 µM) | 0.25 (≈ 0.526 µM) | ≤ 0.125 | 4 (≈ 8.41 µM) | 32 (≈ 67.3 µM) | > 64 | > 64 | 32 (≈ 67.3 µM) | 16 (≈ 33.7 µM)
18 | Cc1ccccc1Cn1ccc(CO[C@H](C)[C@](O)(Cn2cncn2)c2ccc(F)cc2F)n1 | > 64 | 0.5 (≈ 1.1 µM) | 0.5 (≈ 1.1 µM) | 1 (≈ 2.21 µM) | 0.25 (≈ 0.551 µM) | ≤ 0.125 | 8 (≈ 17.6 µM) | – | – | – | – | –
19 | C[C@@H](OCc1ccn(Cc2cccc(Cl)c2)n1)[C@](O)(Cn1cncn1)c1ccc(F)cc1F | 0.25 (≈ 0.528 µM) | 0.5 (≈ 1.06 µM) | 0.5 (≈ 1.06 µM) | 0.5 (≈ 1.06 µM) | ≤ 0.125 | ≤ 0.125 | 4 (≈ 8.44 µM) | – | – | – | – | –
20 | C[C@@H](OCc1ccn(Cc2cccc(F)c2)n1)[C@](O)(Cn1cncn1)c1ccc(F)cc1F | 64 (≈ 140 µM) | 0.5 (≈ 1.09 µM) | 0.25 (≈ 0.547 µM) | 0.25 (≈ 0.547 µM) | ≤ 0.125 | ≤ 0.125 | 4 (≈ 8.74 µM) | – | – | – | – | –
21 | C[C@@H](OCc1ccn(Cc2ccc(F)cc2Cl)n1)[C@](O)(Cn1cncn1)c1ccc(F)cc1F | 8 (≈ 16.3 µM) | 1 (≈ 2.03 µM) | 0.25 (≈ 0.508 µM) | 1 (≈ 2.03 µM) | 0.25 (≈ 0.508 µM) | ≤ 0.125 | 4 (≈ 8.13 µM) | – | – | – | – | –
22 | Cc1ccc(Cn2ccc(CO[C@H](C)[C@](O)(Cn3cncn3)c3ccc(F)cc3F)n2)cc1 | 16 (≈ 35.3 µM) | 0.25 (≈ 0.551 µM) | 0.5 (≈ 1.1 µM) | 2 (≈ 4.41 µM) | 0.25 (≈ 0.551 µM) | ≤ 0.125 | 2 (≈ 4.41 µM) | – | – | – | – | –
23 | C[C@@H](OCc1ccn(Cc2cccc(Cl)c2Cl)n1)[C@](O)(Cn1cncn1)c1ccc(F)cc1F | 16 (≈ 31.5 µM) | 0.25 (≈ 0.492 µM) | 0.5 (≈ 0.984 µM) | 0.5 (≈ 0.984 µM) | ≤ 0.125 | 0.25 (≈ 0.492 µM) | 8 (≈ 15.7 µM) | – | – | – | – | –
24 | C[C@@H](OCc1ccn(Cc2ccc(Cl)cc2Cl)n1)[C@](O)(Cn1cncn1)c1ccc(F)cc1F | 32 (≈ 62.9 µM) | 0.25 (≈ 0.492 µM) | 0.5 (≈ 0.984 µM) | 1 (≈ 1.97 µM) | 0.25 (≈ 0.492 µM) | 0.25 (≈ 0.492 µM) | 4 (≈ 7.87 µM) | – | – | – | – | –
25 | C[C@@H](OCc1ccn(Cc2c(Cl)cc(Cl)cc2Cl)n1)[C@](O)(Cn1cncn1)c1ccc(F)cc1F | 64 (≈ 118 µM) | 2 (≈ 3.68 µM) | ≤ 0.125 | 1 (≈ 1.84 µM) | 0.5 (≈ 0.921 µM) | 0.25 (≈ 0.461 µM) | 8 (≈ 14.7 µM) | – | – | – | – | –
26 | C[C@@H](OCc1ccn(Cc2ccc(OC(F)(F)F)cc2)n1)[C@](O)(Cn1cncn1)c1ccc(F)cc1F | 0.5 (≈ 0.955 µM) | 0.5 (≈ 0.955 µM) | 0.5 (≈ 0.955 µM) | 2 (≈ 3.82 µM) | 0.25 (≈ 0.478 µM) | 0.25 (≈ 0.478 µM) | 2 (≈ 3.82 µM) | – | – | – | – | –

Source: ChEMBL document CHEMBL5579851, “Synthesis and antifungal evaluation of novel triazole derivatives bearing a pyrazole-methoxyl moiety” (Eur J Med Chem, 2024)
